Results: ChEMBL document CHEMBL1201862, “PubChem BioAssay data set” (2004)
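96-well plates; 48 h exposure; 5 concentrations. Endpoints by linear interpolation between flanking doses. Not reached: highest tested concentration assigned. At the GI50, growth is halved.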 Calls of active or inactive are those of the source. No stated cut-off is given here; in the data, active = GI50 up to about 1.1 µM and inactive = higher.

How the values were obtained:
Test in all cases: NCI anticancer screen, dose series, 48 h
[1] = tested on: SK-MEL-28
[2] = tested on: SN12C
[3] = tested on: SW-620
[4] = tested on: A549
[5] = tested on: M14
[6] = tested on: SF-295
[7] = tested on: NCI-H460
[8] = tested on: BT-549
[9] = tested on: NCI-H226
[10] = tested on: MCF7
[11] = tested on: CAKI-1
[12] = tested on: OVCAR-8
[13] = tested on: HCT-15
[14] = tested on: K562
[15] = tested on: Hs-578T
[16] = tested on: SNB-19
[17] = tested on: HCC 2998
[18] = tested on: ACHN
[19] = tested on: CCRF-CEM
[20] = tested on: KM12
[21] = tested on: OVCAR-3
[22] = tested on: NCI/ADR-RES
[23] = tested on: EKVX
[24] = tested on: U-251
[25] = tested on: SF-539
[26] = tested on: A498
[27] = tested on: HL-60
[28] = tested on: HT-29
[29] = tested on: LOX IMVI
[30] = tested on: 786-0
[31] = tested on: UACC-62
[32] = tested on: T47D
[33] = tested on: SK-OV-3
[34] = tested on: SF-268
[35] = tested on: HCT-116
[36] = tested on: Malme-3M
[37] = tested on: MDA-N
[38] = tested on: COLO 205
[39] = tested on: SNB-75
[40] = tested on: DU-145
[41] = tested on: NCI-H23
[42] = tested on: IGROV-1
[43] = tested on: SK-MEL-2
[44] = tested on: MOLT-4
[45] = tested on: TK-10
[46] = tested on: NCI-H522
[47] = tested on: UO-31
[48] = tested on: RXF 393
[49] = tested on: HOP-92
[50] = tested on: UACC-257
[51] = tested on: PC-3
[52] = tested on: SK-MEL-5
[53] = tested on: RPMI-8226
[54] = tested on: MDA-MB-435
[55] = tested on: SR
[56] = tested on: OVCAR-4
[57] = tested on: OVCAR-5
[58] = tested on: HOP-62
[59] = tested on: MDA-MB-231

Measured: GI50

O=C(Nc1cnc(O)nc1O)Oc1ccccc1
inactive: [1] > 100 µM | [2] > 100 µM | [3] > 100 µM | [4] > 100 µM | [5] > 100 µM | [6] > 100 µM | [7] > 100 µM | [8] > 100 µM | [9] > 100 µM | [10] > 100 µM | [11] > 100 µM | [12] > 100 µM | [14] > 100 µM | [15] > 100 µM | [16] > 100 µM | [17] > 100 µM | [18] > 100 µM | [19] > 100 µM | [20] > 100 µM | [21] > 100 µM | [22] > 100 µM | [23] > 100 µM | [24] > 100 µM | [25] > 100 µM | [26] > 100 µM | [27] 14.3 µM | [28] > 100 µM | [29] > 100 µM | [30] > 100 µM | [31] > 100 µM | [32] > 100 µM | [33] > 100 µM | [34] > 100 µM | [35] > 100 µM | [36] > 100 µM | [37] > 100 µM | [38] > 100 µM | [39] > 100 µM | [40] > 100 µM | [41] > 100 µM | [42] > 100 µM | [43] > 100 µM | [44] > 100 µM | [45] > 100 µM | [46] > 100 µM | [47] > 100 µM | [48] > 100 µM | [49] > 100 µM | [50] > 100 µM | [51] > 100 µM | [52] > 100 µM | [53] > 100 µM | [54] > 100 µM | [55] > 100 µM | [56] > 100 µM | [57] > 100 µM | [58] > 100 µM | [59] > 100 µM
> 100 µM: [13]

CC(C)NC(=O)CN1CCN(C2=C(Cl)C(=O)c3c(O)ccc(O)c3C2=O)CC1
inactive: [1] 1.66 µM | [2] 1.68 µM | [4] 8.13 µM | [5] 1.46 µM | [6] 7.1 µM | [7] 7.5 µM | [8] 1.49 µM | [9] 21.5 µM | [10] 1.49 µM | [11] 2.17 µM | [15] 2.39 µM | [16] 13.6 µM | [17] 2.92 µM | [18] 2.15 µM | [20] 6.5 µM | [21] 1.57 µM | [22] 2.38 µM | [23] 3.72 µM | [24] 3.31 µM | [25] 1.97 µM | [26] 3.05 µM | [28] 1.26 µM | [30] 2.56 µM | [31] 1.73 µM | [32] 1.91 µM | [33] 10.1 µM | [34] 1.82 µM | [35] 1.2 µM | [37] 1.49 µM | [38] 1.31 µM | [39] 3.46 µM | [40] 2.71 µM | [42] 2.39 µM | [43] 1.49 µM | [45] 2.07 µM | [46] 1.9 µM | [48] 1.54 µM | [49] 2.24 µM | [50] 1.79 µM | [51] 1.89 µM | [52] 2 µM | [53] 1.99 µM | [54] 1.62 µM | [56] 1.71 µM | [57] 2.92 µM | [58] 7.45 µM | [59] 1.97 µM
active: [3] 0.546 µM | [12] 0.861 µM | [14] 0.341 µM | [19] 0.293 µM | [27] 0.187 µM | [29] 0.65 µM | [36] 1.04 µM | [41] 1.03 µM | [44] 0.36 µM | [47] 1.03 µM | [55] 0.148 µM
0.693 µM: [13]
